Data set [1] can be described thus: Cytotoxicity against Homo sapiens (human) MT4 cells after 5 days by MTT assay. Format: cell-based.
The subject of data set [2] is Human immunodeficiency virus 1. Put plainly: Antiviral activity against Human immunodeficiency virus 1 IIIB infected human MT4 cells assessed as inhibition of virus-induced cytopathic effect after 7 days by MTT assay. Format: functional, organism-based. The conditions noted are these: MT4, 168 h. For orientation: Cytopathic effects are the visible damage that an infection or toxin causes in cultured cells.

A short description of data set [3]: Selectivity index, ratio of CC50 for human MT4 cells to EC50 for HIV13B. The conditions noted are these: read-out: Ratio CC50/EC50. Format: toxicity, cell-based.

In the case of `COc1ccc(-c2cc(-c3ccccc3O)nc(N)n2)cc1`, half-maximal cytotoxicity in data set [1] (CC50 at 120 h) was put at 92.2 µM. Besides, in data set [2], the concentration for a half-maximal effect (EC50) is more than 92.2 µM.

The compound `COc1cccc(-c2cc(-c3ccccc3O)nc(N)n2)c1` had a CC50 at 120 h in data set [1] of more than 78.3 µM. In addition, the concentration for a half-maximal effect (EC50) in data set [2] is more than 78.3 µM.

In turn, `Nc1nc(-c2cccs2)cc(-c2ccccc2O)n1` showed a CC50 at 120 h in data set [1] of 5.3 µM. For the same compound, the EC50 in data set [2] is 5.59 µM.

Regarding `Nc1nc(-c2ccccc2)cc(-c2ccccc2O)n1`, the selectivity ratio in data set [3] stood at 10. This compound yielded a half-maximal cytotoxic concentration (CC50) at 120 h in data set [1] of 31.3 µM. Also, the EC50 in data set [2] came to 3.22 µM.

`Nc1nc(-c2cccc(Cl)c2)cc(-c2ccccc2O)n1` showed a cytotoxic concentration (CC50) at 120 h in data set [1] of more than 125 µM. Also, the EC50 in data set [2] was more than 125 µM.

In turn, `Nc1nc(-c2ccc(Cl)cc2)cc(-c2ccccc2O)n1` returned a CC50 at 120 h in data set [1] of more than 74.7 µM. Moreover, the 50% effective concentration (EC50) in data set [2] was more than 74.7 µM.

In turn, `Nc1nc(-c2ccco2)cc(-c2ccccc2O)n1` gave a CC50 at 120 h in data set [1] of more than 125 µM. Also, the concentration giving a half-maximal response (EC50) in data set [2] is more than 125 µM.

`COc1ccc(-c2cc(-c3ccccc3O)nc(N)n2)cc1OC` yielded a CC50 at 120 h in data set [1] of 7.36 µM. Also, the 50% effective concentration (EC50) in data set [2] was more than 7.36 µM.

Take `Cc1ccc(-c2cc(-c3ccccc3O)nc(N)n2)cc1`: in data set [1], the CC50 at 120 h is more than 128 µM. Besides, in data set [2], the concentration giving a half-maximal response (EC50) was more than 125 µM.

Regarding `Nc1nc(-c2ccc(F)cc2)cc(-c2ccccc2O)n1`, the midpoint of cytotoxicity in data set [1], the CC50 at 120 h, lay at 67.5 µM. Also, in data set [2], the EC50 is more than 67.5 µM.

As to `Cc1cccc(-c2cc(-c3ccccc3O)nc(N)n2)c1`, the selectivity ratio in data set [3] came out at 4. The CC50 at 120 h in data set [1] was 13 µM. Further, the half-maximal effective concentration (EC50) in data set [2] worked out at 3.45 µM.

As a reminder, the CC50 is the concentration that lowers cell viability or growth by half. A higher CC50 goes with lower toxicity to the cells. Broadly, the EC50 is the midpoint of the concentration-response curve.

Values taken from ChEMBL document CHEMBL3045947, “Identification of Novel Non-nucleoside Reverse Transcriptase Inhibitors Using Fragment-based Lead Generation” (Med Chem Res, 2005).
